What all share (type): in vivo
Experiment [1] has as its system tumor blood vessels in Lewis lung cancer (LLC) tumor-bearing mice. Description: Structural changes in tumor blood vessels (anti-CD31 immunostaining) after administration of LPA or LPA derivative. To be noted: 3 mg/kg intraperitoneally once daily for five days, tumors harvested at 6 days, anti-CD31 staining. As to the method: LPA or an LPA derivative was administered to tumor-bearing mice generated by subcutaneous inoculation of a mouse cancer cell line, and post-administration structural changes in tumor blood vessels were examined.
Lewis lung cancer cells (hereinafter called LLC cells) were used as the mouse cancer cell line. LLC cells (1×10^6 cells in 100 μL PBS per animal) were subcutaneously injected into C57BL/6 NCrSlc mice aged 8 weeks (females, SLC, Inc.).
The LPA used was 18:1 LPA (Avanti Polar Lipids, Inc.). The LPA derivative used was VPC31144S (N-{(1S)-2-hydroxy-1-[(phosphonooxy)methyl]ethyl} (9Z) octade c-9-enamide). A 10 mM LPA stock solution and a 10 mM VPC31144S stock solution were separately prepared using 50% ethanol and stored at −30° C. Before use, each of the frozen stock solutions was thawed and homogenized with an ultrasonic cleaner (SND Co., Ltd.) for 1 minute. The solution was diluted in PBS to an appropriate concentration for administration at a dose of 3 mg/kg in 100 μL PBS.
On day 9 post-inoculation, LLC-bearing mice that had developed a tumor with a volume of 60 to 80 mm^3 (volume=length×width×height×0.5) were selected and subjected to the experiment. The mice were assigned to three groups: a control group, an LPA group and a VPC31144S group. Each group consisted of three mice. […]

In the next experiment the test system is LLC cells. Description: Antitumor effect of combined use of LPA and immune checkpoint inhibitor. The conditions noted are these: LLC-bearing mice; LPA 3 mg/kg i.p. day 6 to day 20; anti-PD-1 antibody 100 μg/mouse i.p. on days 7, 9, 11, 14, 16, 18; volume until day 21. As to the method:
LLC cells (1×10^6 cells in 100 μL PBS per animal) were subcutaneously injected into C57BL/6 NCrSlc mice aged 8 weeks (females) in the same manner as in Reference Example 1. On day 6 post-inoculation, LLC-bearing mice that had developed a tumor with a volume of 30 to 40 mm^3 (volume=length×width×height×0.5) were selected. The mice were divided into four groups: a control group, an LPA administration group, an anti-PD-1 antibody administration group and an LPA plus anti-PD-1 antibody administration group, and subjected to the experiment. To the LPA administration group and to the LPA plus anti-PD-1 antibody administration group, LPA (3 mg/kg/100 μL) was intraperitoneally administered consecutively from day 6 through day 20 post-inoculation of the tumor cells. In the anti-PD-1 antibody administration group and in the LPA plus anti-PD-1 antibody administration group, anti-PD-1antibody therapy was started from day 7 post-inoculation of the tumor cells. Specifically, an anti-mouse PD-1 antibody (Clone: RMP1-14, BioXcell, BE0146) was intraperitoneally administered at a dose of 100 μg/mouse on day 7, day 9, day 11, day 14, day 16 and day 18 post-inoculation of the tumor cells. […] Tumor volume was measured over time until day 21.

Experiment [2] has as its system luminal surface of tumor blood vessels in LLC tumor-bearing mice. Description: Structural changes in lumina of tumor blood vessels (scanning electron microscopy). The conditions noted are these: 3 mg/kg intraperitoneally, 24 hours after administration, scanning electron microscope. Here is the method:
LLC cells were subcutaneously inoculated into C57BL/6 NCrSlc mice aged 8 weeks (females, SLC, Inc.) in the same manner as in Reference Example 1. An LPA solution for administration was prepared in the same manner as in Reference Example 1. LLC-bearing mice on day 9 post-inoculation (animals with a tumor volume of 60 to 80 mm^3) were subjected to the experiment. The mice were divided into two groups: a control group and an LPA group (n=3 per group). After grouping, LPA (3 mg/kg/100 μL) or PBS (100 μL) was intraperitoneally administered to the mice. At 24 hours after LPA or PBS administration, the mice were fixed by perfusion with a fixative under anesthesia with pentobarbital (Kyoritsu Seiyaku Corporation). The fixative used was 0.1 M phosphate buffer (pH 7.4) containing 2% formaldehyde and 2.5% glutaraldehyde. After the fixation by perfusion, the tumors were harvested, immersed in the same fixative as used for perfusion, and shaken at 4° C. overnight. The tumors were further immersed in 0.1 M phosphate buffer (pH 7.4) containing 1% osmium tetroxide and 0.5% potassium ferrocyanide for fixation. The tumors were dehydrated in an ascending series of ethanol, then the alcohol was replaced with t-butyl alcohol, and the tumors were freeze-dried.

Take lysophosphatidic acid [LPA]: the “network structure of tumor blood vessels” value in experiment [1] is “continuous network structure of blood vessels”. Besides, the “inhibition of tumor growth (tumor volume) versus control group” value with LLC cells is listed as “slightly inhibited tumor growth”. Besides, in experiment [2], the “luminal surface of tumor blood vessels” value was “very smooth luminal surface”.

For the origin of these results see US11033559B2, “Leukocyte infiltration promoting agent and antitumor immunostimulatory agent” (OSAKA UNIVERSITY, priority 2015, dated 2021).
